In patent US20260364186A1, “Chemical Conjugates, Compositions, and Methods of Preparation and Use Thereof” (Transfection Holdings Limited, priority 2022, published 2026):
“Also recorded” adds a separate entry of the source.

What was measured:
[1] = tested on: NZM40 (NRAS Q16H) melanoma cell line; assay: Sulforhodamine B (SRB) assay of proliferation (Example 7); assay type: cell-based, human; details: 1 μM, 72 h
Procedure: FIG. 7: The 124 conjugate was tested for toxicity using 1 μM final concentration and 72 hour incubation with melanoma cell line NZM40 (NRAS Q16H mutant metastatic melanoma). Cell densities were calculated according with sulforhodamine B assay (SRB assay), absorbance at 515 nm. Cells images of DMSO control and 124 were taken at 24, 48 and 72 h through brightfield using conventional microscope. Results represents a single experiment done in a single sample.
Materials and methods: NZM40 cell line is described above. 1×10^6 NZM40 cells diluted in MEMα media were added to 2×10 cm plates and left to settle for 24 hours. After 24 hour settle period, media was removed from cells and 9900 μL fresh MEMα media added to each plate. 100 μL of DMSO were added to control plate and 100 μL [100 μM 124 in DMSO] were added to treatment plate to afford a final concentration of 1 μM 124. Cells were incubated at 37 °C and 5% 02 for 72 hours and cell images were taken every 24 hours. After 72 hour incubation, sulforhodamine B (SRB) assay was performed to compare final cell density. For this, 2.5 mL of cold 50% (w/v) TCA were added to DMSO (control) and 124 plates. Cells were incubated for 1 hour in TCA at 4 °C. […] The 96 well plate was analysed on plate reader, at wavelength of 515 nm. Results represent the absorbance of cells without dilution, 1:2 dilution, 1:4 dilution and 1:8 dilution.

[2] = tested on: NZM011, NZM009, NZM012, NZM022 and NZM077 cells; assay: Flow cytometry uptake into metastatic melanoma lines (Example 11); assay type: cell-based, human; details: 200 nM, 30 minutes
Procedure: FIG. 11: Uptake for compounds 124, 126, and 132 at 200 nM and 30 minute incubation with melanoma cell lines: NZM12 (NZM012) (BRAF V600E mutant metastatic melanoma, homozygous deletion CDKN2A and low invasive cell line), NZM77 (NZM077) (BRAF V600E mutant metastatic melanoma and missense NF1), NZM22 (NZM022) (BRAF G466A mutant metastatic melanoma, P53 241S/T mutant, NF1 non-frameshift insertion and PTEN epigenetic silencing). NZM9 (NZM009) (P53 179C/T mutant and homozygous silencing CDKN2A). NZM11 (NZM011) (BRAF V600E mutant metastatic melanoma and homozygous deletion CDKN2A), as positive control. Mean fluorescent intensities (MFI). 1,500-2,000 cells were obtained. Bars represent mean±SD. Results are from a single experiment done in triplicate. Cells were analysed by FACS.
Methods: For screening, NZM011, NZM009, NZM012, NZM022 and NZM077 cells were suspended at 250 cells per μL in MEMα media and 200 μL was dispensed into 96 well plates. The cells were left to settle for 24 hours for NZM011, NZM012 and NZM077 and 48 hours for NZM009 and NZM022 at 37 °C, 5% O2, 5% CO2. Before addition to the cells, 10 μL of 10 mM stock solutions in DMSO of compounds 124, 126, and 132 were diluted with 1% FBS MEMα media to give a 200 nM solution.
After the appropriate settle time, the media was removed from the 96 well plates and 200 μL of 200 nM conjugate solutions and DMSO control were dispensed to each well (in triplicate) and incubated for 30 minutes at 37 °C, 5% O2, 5% CO2. After 30 minutes, the media was removed and cells washed with PBS. Next, 100 μL of TrypLE trypsin (ThermoFisher Scientific) was added to each well and incubated for 5 minutes at 37 °C. After this, 150 μL of MEMα media (plus 1% FBS for NZM011, NZM012 and NZM077; plus 5% FBS for NZM009 and NZM022) were added. Cells were analysed by flow cytometry using a FACS biosort and FITC filter. Flow cytometry results represent the mean of the fluorescence intensities (in arbitrary units) measured for cells sorted in every sample.

[3] = tested on: melanoma tumours (NZM11 cells); assay: Whole body fluorescent cryo-imaging, tumour targeting (Example 13); assay type: in vivo, mouse; details: 0.7 mg/kg i.v., 1 hour post dosing
Procedure: Materials and methods: Compound 124 was supplied as a 10 mM stock solution in DMSO. NZM011 cells were grown in AMEM, 5% FBS, 5 μg/mL insulin, 5 μg/mL transferrin, 5 ng/mL sodium selenite at 37 °C with 5% O2, 90% N2 5% CO2. The study was performed in 6-week-old male NIH-III athymic mice (strain code 201). Work was carried out by Ichor Biosciences La Fayette NY, USA. Mice were injected on one flank with 5×10^6 NZM11 cells in a 50:50 matrigel:media suspension with a 22G needle. When tumours reach over 500 mm3 the mice were administered intravenously (tail vein) with a solution of compound 124 in phosphate buffered saline at a dose of 0.7 mg/kg. The mice were euthanized at 1 hour or 6 hours post dosing and frozen for cryoimaging. A control mouse received no tumour cells or compound 124 and was euthanized and frozen for cryoimaging at the same time as the treated mice.
Processed animals were cryoimaged imaged at BioInvision in Cleveland Ohio. Whole animal was sectioned at 40 microns and imaged using brightfield at fluorescent modes (503 nm). In-plane pixel size 10 microns. Mouse #1 with tumour on one flank at 500 mm3, treated with compound 124 (0.7 mg/kg) and euthanised 1 hour post treatment. Mouse #6 no tumour or compound 124 treatment euthanised on same day.

Question: What does the source list for `CC1=CC(C)=[N+]2C1=Cc1ccc(CCCn3cc(CCNC(=O)/C=C/NC(=O)[C@H](O)C(C)(C)CO)nn3)n1[B-]2(F)F` [Compound 124]?
Answer: effect on proliferation [1]: comparable proliferation to DMSO control cells; also recorded: no significant difference on proliferation; also recorded: little to no effect on proliferation; morphology under microscope [1]: do not exhibit significant changes on morphology; uptake, in words [2]: highest uptake levels; also recorded: consistent, selective and high level of uptake; times greater uptake than conjugate 132 ([2]; five cell lines): 1.5-3 times; 124-specific fluorescence in tumour [3]: 124-specific fluorescence was also seen in the region of the implanted tumour and Specific 124-fluorescence was observed in the region of the tumour and specific green fluorescence from compound 124 was seen in the proximity of the tumour and specifically targeted and bound to tumour in vivo
